Measurements published in US10869834B2, “Treatment of inflammatory bowel disease” (University College Dublin, National University of Ireland, …, priority 2016, dated 2020).

What was measured:
C. rodentium [1] = conditions: H2O2 generated by Cos-NOX4 cells vs Cos-p22 negative control; 4 h, DMEM; separated by a filter; n=4
Description: (§1) Cos-NOX4 and Cos-p22 cells in DMEM, 5% FBS (Cell Signal 18:69-82, 2006; J Biol Chem 283:35273-82, 2008; Mol Cell Biol 30:961-75, 2010) were seeded into the lower chamber of a Boyden chamber (pore width 0.4 μm) 48 h before the assay. Lactobacilli grown in DMEM were suspended in media onto the upper chamber. Co-culture was initiated for 3-4 h in DMEM, 5% FBS media followed by harvesting of bacteria on the filter for RNA isolation.

EPEC = conditions: H2O2 released from Cos-NOX4 cells (not Cos-p22) for 3 h; separated by a filter
Description: as §1

C. rodentium [2] = conditions: single bolus of 1 mM H2O2 in DMEM, analysed 3 h later
Description: (§2) Invasion and adhesion assays were performed as previously reported (Cell Host Microbe 12:47-59, 2012). Bacterial cell viability was assessed using the XTT (2,3-Bis-(2-Methoxy-4-Nitro-5-Sulfophenyl)-2H-Tetrazolium-5-Carboxanilide) assay. For in vitro experiments bacteria were exposed at time zero once to 0.7 mM H2O2, except for C. jejuni (5 mM), and analyzed after indicated time periods (up to 3 h, except C. jejuni up to 6 h).

L. monocytogenes [3] = tested on: L. monocytogenes
Description: as §2

S. pneumoniae [4] = conditions: 0.7 mM H2O2 for 3 h
Description: as §2

C. rodentium [5] = test: C. rodentium infection of mice treated with L. johnsonii by oral gavage; type: in vivo, C57Bl/6 mice; conditions: daily oral gavage with NCC533 or NCC9359 prior and during infection; 6 dpi
Description: Cyba^flox/flox mice were bred to B6.SJL-Tg (Vil-cre) 997Gum/J mice (Jackson Laboratories) to generate mice with a targeted deletion of p22^phox in the epithelium of the small intestine and colon (p22ΔIEC). Mice were infected by oral gavage with 0.3 ml of an overnight culture of Luria Bertani broth containing 5×10^9 Citrobacter rodentium and analyzed at day 6 post infection. L. johnsonii NCC533/NCC9359 pretreatment and treatment: L. johnsonii NCC533 and NCC9359 strains were administered at a concentration of 10^9 CFU to WT mice via oral gavage starting 3 days prior C. rodentium inoculation and daily during C. rodentium infection. For histopathology Carnoy-fixed distal colons were embedded in paraffin and 5 μm sections were stained with hematoxylin and eosin (H&E).

murine colitis (3% DSS) = test: In-vivo murine colitis model (3% DSS), administration of H2O2-producing bacteria; set-up: species or system mice
Description: Wildtype mice were treated with 1×10^9 bacteria by daily oral gavage 5 days before, during colitis (3% DSS in water) and until the end of the experiment (day 16). On day 7 of DSS treatment, DSS was replaced with water to enable the healing process. […] One-way Anova with Tukey post-hoc test; **p=0.01, ***p=0.001.

[6] = tested on: bacterial phosphotyrosine signalling; conditions: H2O2 generated by colon cells, human biopsies and rabbit loop model during pathogen exposure; co-culture 3 h
Description: Bacteria in RPMI 1640 containing 3% FBS (OD600=0.4; 10^7 bacteria, 1 ml) were incubated with HCT-8 cells at 37° C. in microaerophilic conditions with MOI 50. DPI pretreatment of HCT-8 cells was for 20 min (25 μM). Non-adherent bacteria were removed by centrifugation of media (3300 g, 5 min), and were used for immunoblotting. […] Exposure of bacteria to H2O2 released by Cos cells stable expressing the NOX4-p22^phox complex or as negative control Cos cells expressing only p22^phox was performed using Boyden chambers. Cells in DMEM, 10% FBS medium were seeded into the bottom chamber 24 h before start of the experiment and then moved to microaerophilic conditions for 3 h. Bacteria grown in microaerophilic conditions were resuspended in 5% O2 conditioned DMEM, 3-10% FBS medium, placed on top of the filter (3 μm pore size) and incubated for 3 h. Bacteria were harvested from the filter for analysis.
Polarized In Vitro Organ Culture (pIVOC): pIVOC experiments of colon biopsies were performed as described (Cell Host Microbe 12:47-59, 2012). Bacterial infections were conducted using microaerophilic preconditioned media or buffers. L. monocytogenes was added at a final OD600=0.2 to the apical side of biopsies and H2O2 release was measured. Controls were either non-infected biopsies or biopsies pretreated with 20 μM DPI for 20 min before addition of C. jejuni or L. monocytogenes to the top chamber. […]

L. monocytogenes [7] = conditions: Cos-NOX4 cell-produced H2O2 vs Cos-p22
Description: Exposure of bacteria to H2O2 released by Cos cells stable expressing the NOX4-p22^phox complex or as negative control Cos cells expressing only p22^phox was performed using Boyden chambers. Cells in DMEM, 10% FBS medium were seeded into the bottom chamber 24 h before start of the experiment and then moved to microaerophilic conditions for 3 h. Bacteria grown in microaerophilic conditions were resuspended in 5% O2 conditioned DMEM, 3-10% FBS medium, placed on top of the filter (3 μm pore size) and incubated for 3 h. Bacteria were harvested from the filter for analysis.

[8] = tested on: bacterial phosphotyrosine content; conditions: 0.7 mM H2O2, 3 h; when iron is present; 5% O2
Description: C. jejuni 81-176, L. monocytogenes EGDe and K. pneumoniae were grown microaerophilic to mid-log phase in minimal essential media. Bacteria were collected by centrifugation (5000 rpm, 10 min) and diluted to OD600=0.2 in MEM. Iron (II) sulfate (40 μM) was added as indicated and cultures were grown microaerophilic until OD600=0.5 was reached. To C. jejuni 81-176 cultures 5 mM H2O2 was added and the growth continued microaerophilic for 8 h. L. monocytogenes and K. pneumoniae cultures were exposed to 0.7 mM H2O2 for 3 h in microaerophilic conditions. Bacteria were then diluted to OD600=0.2, collected by centrifugation, washed twice with 25 mM Tris-HCl, resuspended in 30 μl Laemmli buffer and heated for 5 min at 95° C. Boiled samples were loaded on 10% SDS-PAGE gels, separated by electrophoresis and immunoblotted. The control samples followed an identical protocol without supplemental iron or added H2O2.

S. pneumoniae [9] = conditions: bacteria pretreated with 0.7 mM H2O2 for 3 h
Description: Biofilm was analyzed using SYTO9. Cultured bacteria were grown in microaerophilic conditions overnight. The bacterial culture was then adjusted to OD600=0.1 and 1 ml of this solution was added to an optical grade plastic bottom μ-plate 24 well. Bacteria were incubated for an additional 72 h in microaerophilic conditions. Bacteria were washed gently with autoclaved water to remove planktonic cells and fixed with 3% paraformaldehyde in PBS for 1 h. Images were then analyzed for total intensity of SYTO9 fluorescence over the imaged volumes using Fiji. Briefly, after staining with SYTO9, 50 independent 13.2 μm stacks of 60 images at a 0.22 μm Z resolution were imaged for all conditions. The mean fluorescence of the different slices in the stacks was measured and a standard deviation was computed from the aggregated data per slice.

mucus secretion = conditions: Birchenough G. et al., Science 352:1535-1542; cited from earlier work
[10] = bacteria pretreated with 0.7 mM H2O2 for 3 h
[11] = daily oral gavage 5 days before, during colitis and until day 16

## OO [H2O2, hydrogen peroxide]
C. rodentium [1]
  ler and escN expression in C. rodentium (qPCR): Downregulation of LEE island genes
EPEC
  ler and escN expression in EPEC (qPCR): Downregulation of LEE island genes
C. rodentium [2]
  ler expression in C. rodentium (qPCR): Downregulation of ler
L. monocytogenes [3]; 0.7 mM H2O2 for 3 h
  bacterial viability after treatment: remained fully viable
L. monocytogenes [3]; [10]
  adherence to HCT-8 colon cells: reduced
  invasion of HCT-8 colon cells: reduced
S. pneumoniae [4]
  bacterial viability after treatment: remained fully viable
C. rodentium [5]
  host epithelial tissue damage (H&E staining of colon sections): required to prevent host epithelial tissue damage
Murine colitis (3% DSS); daily administration, low nanomolar H2O2 (via NCC533, 1x10^9 bacteria oral gavage), DSS replaced with water on day 7
  recovery after insult (disease index, body weight): accelerates recovery after insult
Murine colitis (3% DSS); [11]
  inflammation (colon length as indicator): downregulates inflammation
  tissue restitution (H&E staining of colon day 11): supports rapid tissue restitution
[6]
  bacterial phosphotyrosine signalling (anti-phosphotyrosine immunoblots): downregulates bacterial phosphotyrosine signalling
L. monocytogenes [7]
  bacterial phosphotyrosine content (anti-phosphotyrosine immunoblot): marked decrease in bacterial phosphotyrosine content
[8]
  bacterial phosphotyrosine content (anti-phosphotyrosine immunoblots): decreases bacterial phosphotyrosine content
S. pneumoniae [9]
  biofilm formation (mean SYTO9 fluorescence): Reduced biofilm formation
Mucus secretion
  mucus secretion: can restore mucus secretion
